Strand notation (5' to 3'): a small letter for the sugar, then the base; units joined by * are phosphorothioate-linked, units joined directly phosphodiester-linked; [ ] holds rarer units or linkages, { } end groups; capitals alone tell only the bases. m = 2'-O-methyl; r = 2'-OH (RNA)
B1: G000572: TTR sgRNA modified sequence, Human, SEQ ID No. 113; guide sequence of CR003385 (nucleic acid)
guide: mC*mC*mC*rCrUrArCrUrCrCrUrArUrUrCrCrArCrCrArGrUrUrUrUrArGrAmGmCmUmAmGmAmAmAmUmAmGmCrArArGrUrUrArArArArUrArArGrGrCrUrArGrUrCrCrGrUrUrArUrCrAmAmCmUmUmGmAmAmAmAmAmGmUmGmGmCmAmCmCmGmAmGmUmCmGmGmUmGmCmU*mU*mU*mU

Experiments:
TTR [1] = experiment: TTR editing in HUH7 cells transfected with Spy Cas9 mRNA and dgRNAs (Table 5); assay type: cell-based, human; conditions: HUH7 cells co-transfected with Spy Cas9 mRNA (SEQ ID NO:2) and dgRNAs
Method in brief: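 Percent editing is the share of NGS reads at the TTR target carrying insertions, deletions or substitutions, from amplicon sequencing of genomic DNA harvested at 24, 48 or 72 h. HUH7 cells first received Cas9 mRNA (100 ng) by lipofection, then dual-guide RNA (crRNA and tracer, 25 nM each).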

TTR [2] = experiment: TTR editing in primary human hepatocytes transfected with Spy Cas9 protein (RNP) loaded with dgRNAs (Table 8); assay type: cell-based; conditions: dgRNA transfected with Spy Cas9 protein (RNP)
Method in brief: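 Primary human hepatocytes were lipofected (RNAiMAX) with RNP of Spy Cas9 (10 nM) plus pre-annealed crRNA (10 nM) and trRNA (10 nM) and harvested 24, 48 or 72 h later. Target-site amplicons were sequenced on Illumina MiSeq and aligned to hg38; percent editing = reads with indels or substitutions over total reads.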

off-target genomic sites = experiment: Off-target oligo insertion based assay in HEK293_Cas9 cells, dgRNAs and sgRNAs (Tables 23, 24); assay type: cell-based, human
Method in brief: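 In HEK293 cells constitutively expressing Spy Cas9, crRNA (15 nM) plus trRNA (15 nM), or modified sgRNAs, were lipofected with donor oligo (10 nM). Genomic DNA was collected at 24 h, and oligo-insertion libraries were sequenced on MiSeq/HiSeq to map potential off-target cleavage sites.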

[3] = Table 23, TTR dgRNAs in HekCas9 cells, oligo insertion based assay

Molecule	Avg % Deletion (TTR [1])	Avg % Edit (TTR [1])	Avg % Insert (TTR [1])	Avg % Deletion (TTR [2])	Avg % Edit (TTR [2])	Avg % Insert (TTR [2])	# Sites (off-target integration sites detected) (off-target genomic sites; [3])	# Sites (off-target integration sites detected) (off-target genomic sites; Table 24, TTR sgRNAs in HekCas9 cells, insertion detection method)	# Sites in HekCas9 cells (Example 5) (off-target genomic sites; Table 30, TTR sgRNAs, HekCas9 cells, repeated from Example 5 for comparison)
AAAGGCUGCUGAUGACACCU (tested as dual guide RNA, chemistry not given here) [CR003353]	62.87%	69.18%	7.73%	2.16%	61.54%	59.38%	2	–	–
AAAGUUCUAGAUGCUGUCCG (tested as dual guide RNA, chemistry not given here) [CR003346]	6.97%	18.07%	13.17%	1.84%	4.11%	2.27%	0	–	–
AAAUAGACACCAAAUCUUAC (tested as dual guide RNA, chemistry not given here) [CR003366]	50.32%	69.98%	20.77%	4.79%	42.74%	37.95%	1	–	–
AAGUGCCUUCCAGUAAGAUU (tested as dual guide RNA, chemistry not given here) [CR003368]	29.69%	31.57%	3.08%	1.00%	34.83%	33.83%	2	–	–
ACACAAAUACCAGUCCAGCA (tested as dual guide RNA, chemistry not given here) [CR003339]	20.13%	79.97%	60.55%	36.21%	45.06%	8.85%	3	–	–
ACGUGUCUUCUCUACACCCA (tested as dual guide RNA, chemistry not given here) [CR005302]	–	–	–	0.97%	48.29%	47.32%	1	–	–
ACUGAGGAGGAAUUUGUAGA (tested as dual guide RNA, chemistry not given here) [CR003363]	23.78%	41.01%	17.83%	6.18%	27.65%	21.47%	4	–	–
AGACACCAAAUCUUACUGGA (tested as dual guide RNA, chemistry not given here) [CR003367]	33.48%	66.29%	33.62%	15.13%	31.19%	16.06%	1	–	–
AGCCUUUCUGAACACAUGCA (tested as dual guide RNA, chemistry not given here) [CR003351]	27.49%	63.51%	36.87%	16.36%	40.28%	23.92%	1	–	–
AGGCAGUCCUGCCAUCAAUG (tested as dual guide RNA, chemistry not given here) [CR003348]	22.71%	57.14%	36.08%	9.44%	23.18%	13.74%	3	–	–
AGUCCCUCAUUCCUUGGGAU (tested as dual guide RNA, chemistry not given here) [CR003392]	26.98%	28.37%	1.93%	0.14%	10.07%	9.93%	0	–	–
AGUGAGUCUGGAGAGCUGCA (tested as dual guide RNA, chemistry not given here) [CR003359]	45.97%	66.75%	21.73%	8.51%	59.47%	50.96%	6	–	–
AUACCAGUCCAGCAAGGCAG (tested as dual guide RNA, chemistry not given here) [CR003338]	67.06%	75.64%	10.22%	2.22%	61.34%	59.13%	2	–	–
AUAGGAGUAGGGGCUCAGCA (tested as dual guide RNA, chemistry not given here) [CR003383]	41.19%	42.89%	2.14%	0.24%	4.76%	4.52%	1	–	–
AUUGGUGACGACAGCCGUGG (tested as dual guide RNA, chemistry not given here) [CR003389]	50.90%	62.32%	13.19%	0.68%	19.87%	19.19%	2	–	–
CAGAGGACACUUGGAUUCAC (tested as dual guide RNA, chemistry not given here) [CR003343]	66.97%	76.13%	9.58%	1.63%	43.25%	41.61%	2	–	–
CAUUGAUGGCAGGACUGCCU (tested as dual guide RNA, chemistry not given here) [CR003347]	30.79%	32.16%	1.64%	0.24%	66.35%	66.11%	1	–	–
CCAGUCCAGCAAGGCAGAGG (tested as dual guide RNA, chemistry not given here) [CR003337]	48.95%	55.72%	8.34%	1.88%	49.43%	47.54%	10	–	–
CCCAGAGGCAAAUGGCUCCC (tested as dual guide RNA, chemistry not given here) [CR003355]	30.31%	38.83%	9.40%	1.42%	19.11%	17.69%	1	–	–
CCCCUACUCCUAUUCCACCA (tested as dual guide RNA, chemistry not given here) [CR003385]	–	–	–	3.00%	41.15%	38.15%	3	–	–
CCGUGGUGGAAUAGGAGUAG (tested as dual guide RNA, chemistry not given here) [CR003386]	69.34%	69.40%	0.53%	0.25%	3.22%	2.97%	1	–	–
CCUCCUCUGCCUUGCUGGAC (tested as dual guide RNA, chemistry not given here) [CR003336]	26.56%	30.05%	4.14%	0.58%	30.70%	30.11%	2	–	–
CUCUGCAUGCUCAUGGAAUG (tested as dual guide RNA, chemistry not given here) [CR003369]	17.38%	24.19%	7.12%	1.31%	12.98%	11.67%	2	–	–
GUCACAGAAACACUCACCGU (tested as dual guide RNA, chemistry not given here) [CR005301]	–	–	–	1.84%	31.37%	29.53%	0	–	–
UGAAUCCAAGUGUCCUCUGA (tested as dual guide RNA, chemistry not given here) [CR005303]	–	–	–	0.39%	36.45%	36.06%	1	–	–
B1	–	–	–	–	–	–	–	15	15

— patent publication US11795460B2, “Compositions and methods for TTR gene editing and treating ATTR amyloidosis” (Intellia Therapeutics, Inc., priority 2017, dated 2023)
